Measurements taken from patent publication US20230293560A1, “METHOD FOR MODULATING THE BLADDER MICROBIOME TO IMPROVE BLADDER HEALTH” (Kimberly-Clark Worldwide, Inc., priority 2020, published 2023).
Where “and” joins values, the source holds several entries; their conditions need not be identical. Equal values may be shown once.

Columns and labels:
[1] = test system: E. faecalis; assay: High throughput assay screening of prebiotics; format: cell-based, Enterococcus faecalis; parameters: key: ++: if growth and fermentation was equal to or greater than the positive control; +: if growth and fermentation was less than the positive control; +: if weak or no growth or fermentation; +^2: Bacteria demonstrated growth but no fermentation on the prebiotic; conditions: 2% w/v prebiotic in API 50 CHL media; for growth and fermentation vs positive control, Ef-2: E. faecalis KC16-7171-3, Bladder; for growth and fermentation vs positive control, Ef-3: E. faecalis KC17-3969-2B, Bladder; for growth and fermentation vs positive control, Ef-4: E. faecalis KC17-4331-3, Bladder
Method: (§1) Most of the prebiotic compounds were initially tested in a high throughput assay screening process, described further in the Test Methods section herein, but three prebiotics (as noted in Table 3) were tested using a plate assay screening process as described in the Test Methods section herein. The prebiotics were tested against the commensal bacterial species of Lactobacillus crispatus, Lactobacillus gasseri, and Lactobacillus jensenii and against the pathogenic bacterial species of Streptococcus anginosus and Enterococcus faecalis as shown in Table 2. The bacterial species were taken from different sources, listed as culture collection, bladder, and vagina.
(§2) The results of the assay plate screening of the prebiotic compounds of Table 1 against the bacterial species of Table 2 is documented in Table 3 with the results being described by the following legend: • ++ if growth and fermentation was equal to or greater than the positive control • + if growth and fermentation was less than the positive control • […] if weak or no growth or fermentation • NT if not tested Some codes were not tested based on the use or non-use by the bacteria, as a way to efficiently move through the assay plate screening to the competition assay, described below.
(§3) • 1. Create a 2% w/v stock of prebiotic or positive control (glucose/dextrose) to be tested in API 50 CHL media (Biomerieux, Marcy-I'Étoile, France). API 50 CHL media contains minimal amounts of carbon for growth, and a bromocresol purple as a pH indicator of fermentation. Filter sterilize media with a […]. Store at 4-6° C. until use. • 2. Add 180 μL of media containing the prebiotic to a sterile, flat bottom 96-well microtiter plate (Corning, Corning, NY). • 3. From a freezer stock subculture the bacteria twice into De Man, Rogosa and Sharpe (MRS) broth (BD Difco, Becton Dickinson, Franklin Lakes, NJ), 37° C., stationary, anaerobic, overnight. • 4. From the last subculture, plate onto an MRS agar plate (Teknova, Hollister, CA) and grow 37° C., stationary, anaerobic, overnight. • 5. Create a bacterial suspension by using a sterile tipped swab to transfer colonies of bacteria into a PBS suspension blank to a 0.5 MacFarland (S. anginosus or E. faecalis) or a 1 MacFarland (Lactobacillus species) from the MRS agar plate. • 6. Enumerate the starting culture. • 7. Inoculate the media alone and media containing the prebiotic or positive control with 20 μL of the bacterial suspension. • 8. Place the plate into a spectrophotometer (Molecular Devices, San Jose, CA) and read the plate every 20 minutes for 24-48 hours. Read wavelengths (OD 430, OD 590, and OD 660). A color change to yellow caused by a drop in pH will be read by an increase in the OD430 value and a decrease in the OD590 value and is indicative of bacterial fermentation. An increase in OD660 values is indicative of an increase in turbidity and bacterial growth.

[2] = test system: L. crispatus; assay: High throughput assay screening of prebiotics; format: cell-based, Lactobacillus crispatus; parameters: key: ++: if growth and fermentation was equal to or greater than the positive control; +: if growth and fermentation was less than the positive control; +: if weak or no growth or fermentation; +^2: Bacteria demonstrated growth but no fermentation on the prebiotic; conditions: 2% w/v prebiotic in API 50 CHL media; for growth and fermentation vs positive control, Lc-3: L. crispatus KC18-1173-1, Bladder; for growth and fermentation vs positive control, Lc-4: L. crispatus KC18-1174-1, Vagina
Method: as §1, §2, §3

[3] = test system: S. anginosus; assay: High throughput assay screening of prebiotics; format: cell-based, Streptococcus anginosus; parameters: key: ++: if growth and fermentation was equal to or greater than the positive control; +: if growth and fermentation was less than the positive control; +: if weak or no growth or fermentation; +^2: Bacteria demonstrated growth but no fermentation on the prebiotic; conditions: S. anginosus KC18-1131-3B, Bladder; 2% w/v prebiotic in API 50 CHL media
Method: as §1, §2, §3

[4] = test system: L. gasseri; assay: High throughput assay screening of prebiotics; format: cell-based, Lactobacillus gasseri; parameters: key: ++: if growth and fermentation was equal to or greater than the positive control; +: if growth and fermentation was less than the positive control; +: if weak or no growth or fermentation; +^2: Bacteria demonstrated growth but no fermentation on the prebiotic; conditions: 2% w/v prebiotic in API 50 CHL media; for growth and fermentation vs positive control, Lg-1: L. gasseri KC16-7135-1, Bladder; for growth and fermentation vs positive control, Lg-2: L. gasseri KC16-7171-1, Bladder; for growth and fermentation vs positive control, Lg-3: L. gasseri KC18-1131-2, Bladder
Method: as §1, §2, §3

[5] = test system: L. jensenii; assay: High throughput assay screening of prebiotics; format: cell-based, Lactobacillus jensenii; parameters: key: ++: if growth and fermentation was equal to or greater than the positive control; +: if growth and fermentation was less than the positive control; +: if weak or no growth or fermentation; +^2: Bacteria demonstrated growth but no fermentation on the prebiotic; conditions: 2% w/v prebiotic in API 50 CHL media; for growth and fermentation vs positive control, Lj-1: L. jensenii KC17-4297-18, Bladder
Method: as §1, §2, §3

[6] = test system: commensal and pathogenic bacterial species; assay: Prebiotic screening, summary in words across species; format: cell-based; conditions: for overall outcome of the screening of Table 3, in words: commensal (L. crispatus, L. gasseri, L. jensenii) and pathogenic (S. anginosus, E. faecalis) species
Method: as §1, §2, §3
• 1. An in house bacterial agar was created based on MRS agar (Kaplan and Hutkins, 2000) where the glucose is substituted for the prebiotic to be tested (either dextran MW ˜6,000, alpha-cyclodextrin, glucomannan, or pectin), bromocresol purple was included as a pH indicator. • 2. Bacteria were enumerated on each agar and color changes were recorded. Method for Competition Assay (Modified from “In Vitro Evaluation of Nutrients that Selectively Confer a Competitive Advantage to Lactobacilli” Vongsa et al, Beneficial Microbes 2016) • 1. Create 2% w/v stock of prebiotic or positive control (glucose/dextrose) as described above. • 2. From a freezer stock subculture the bacteria twice into De Man, Rogosa and Sharpe (MRS) broth (BD Difco, Becton Dickinson, Franklin Lakes, NJ), 37° C., stationary, anaerobic, overnight. • 3. From the last subculture, plate onto an MRS agar plate for L. crispatus KC18-1173-1 or blood agar for S. anginosus KC18-1131-3B, grow 37° C., stationary, anaerobic, overnight. • 4. […]

[7] = test system: S. anginosus, KC18-1131-3B, Bladder (Sa-2); format: cell-based; conditions: Table 6, prebiotic 2%, one line per replicate
Method: (§4) Further testing was conducted to put the prebiotic compounds in competition assay testing, as further described in the test methods section herein. In the competition assay testing, each competition involved testing a single prebiotic compound with the commensal bacteria species of L. crispatus, KC18-1173-1, Bladder (“Lc-3”—Table 2) against the pathogenic bacterial species of S. anginosus, KC18-1131-3B, Bladder (“Sa-2”—Table 2).
(§5) • 1. An in house bacterial agar was created based on MRS agar (Kaplan and Hutkins, 2000) where the glucose is substituted for the prebiotic to be tested (either dextran MW ˜6,000, alpha-cyclodextrin, glucomannan, or pectin), bromocresol purple was included as a pH indicator. • 2. Bacteria were enumerated on each agar and color changes were recorded. Method for Competition Assay (Modified from “In Vitro Evaluation of Nutrients that Selectively Confer a Competitive Advantage to Lactobacilli” Vongsa et al, Beneficial Microbes 2016) • 1. Create 2% w/v stock of prebiotic or positive control (glucose/dextrose) as described above. • 2. From a freezer stock subculture the bacteria twice into De Man, Rogosa and Sharpe (MRS) broth (BD Difco, Becton Dickinson, Franklin Lakes, NJ), 37° C., stationary, anaerobic, overnight. • 3. From the last subculture, plate onto an MRS agar plate for L. crispatus KC18-1173-1 or blood agar for S. anginosus KC18-1131-3B, grow 37° C., stationary, anaerobic, overnight. • 4. Create a bacterial suspension by using a sterile tipped swab to transfer colonies of bacteria into a PBS suspension blank to a 2 MacFarland for both species. • 5. Enumerate the starting culture. • 6. Add 9.8 mL of prebiotic media into a 15 mL conical tube. • 7. Add 100 μL of the diluted bacteria to the media, incubate at 37° C., anaerobic, 48 hours. • 8. Harvest 100 μL from the tube containing the prebiotic and plate onto MRS agar and tryptic soy agar (TSA). • 9. Enumerate the bacteria on the MRS agar (both the L. crispatus and the S. anginosus). Small colonies are counted as S. anginosus and large colonies are counted as L. crispatus. • 10. Enumerate the bacteria on the TSA plate. […] Growth of the bacteria in the negative control (CHL media without prebiotic) was subtracted from the growth in the presence of the prebiotic or formulation.

[8] = test system: L. crispatus, KC18-1173-1, Bladder (Lc-3); assay: Competition assay, L. crispatus recovered; format: cell-based, Lactobacillus crispatus; conditions: Table 6, prebiotic 2%, one line per replicate
Method: as §4, §5

[9] = test system: ratio of L. crispatus/S. anginosus; assay: Therapeutic effect protocol (competition assay); format: cell-based, Lactobacillus crispatus; Streptococcus anginosus; conditions: Table 6; prebiotic 2%; Lc-3 vs Sa-2
Source text: As used herein, the term “therapeutic effect” refers to the ability of the compositions and formulations of the present disclosure to stimulate the growth of L. crispatus relative S. anginosus measured according to the therapeutic effect protocol described below. The therapeutic effect can be expressed as a ratio of L. crispatus to S. anginosus and is desirably greater than about 100, more preferably greater than about 500 and more desirably greater than about 1,000.
as §4, §5
Colonies of L. crispatus and S. anginosus were tested against in the competition method assay test method as described above. The therapeutic effect was calculated by comparing the colony forming units recovered after the competition assay of both L. crispatus and S. anginosus and calculating the ratio of L. crispatus/S. anginosus. A larger number indicates an increase in L. crispatus and/or a decrease in S. anginosus and a smaller number indicates a decrease in L. crispatus and/or an increase in S. anginosus.

[10] = change vs start, background growth in CHL media subtracted, MRS agar

| Compound | growth and fermentation vs positive control, Ef-2 [1] | growth and fermentation vs positive control, Ef-3 [1] | growth and fermentation vs positive control, Ef-4 [1] | growth and fermentation vs positive control, Lc-3 [2] | growth and fermentation vs positive control, Lc-4 [2] | growth and fermentation vs positive control, Sa-2 [3] | growth and fermentation vs positive control, Lg-1 [4] | growth and fermentation vs positive control, Lg-2 [4] | growth and fermentation vs positive control, Lg-3 [4] | growth and fermentation vs positive control, Lj-1 [5] | overall outcome of the screening of Table 3, in words [6] | other results |
| --- | --- | --- | --- | --- | --- | --- | --- | --- | --- | --- | --- | --- |
| OC[C@H]1O[C@](O)(CO)[C@@H](O)[C@@H]1O [Beta-D-fructose, Beta-D-Fructose] | ++ | ++ | ++ | ++ | ++ | ++ | + | + | + | ++ | able to provide growth on the commensal bacterial species, but also provided growth on the pathogenic bacterial species | growth and fermentation vs positive control, Lc-2 ([2]; L. crispatus KC16-7134-3C, Bladder): ++; growth and fermentation vs positive control, Lg-4 ([4]; L. gasseri KC18-1142-2, Bladder): +; growth and fermentation vs positive control, Lj-2 ([5]; L. jensenii KC17-4347-1, Bladder): +; growth and fermentation vs positive control, Lj-3 ([5]; L. jensenii KC17-4368-2, Bladder): ++ |
| OC[C@H]1O[C@H](O[C@H]2O[C@H](CO)[C@@H](O)[C@H](O)[C@H]2O)[C@H](O)[C@@H](O)[C@@H]1O [D-Trehalose] | ++ | ++ | ++ | ++ | + | ++ | ++ | ++ | ++ | + | – | – |
| OC[C@@H](O)[C@@H](O[C@@H]1O[C@H](CO)[C@H](O)[C@H](O)[C@H]1O)[C@H](O)[C@@H](O)CO [Lactitol] | – | – | – | – | – | – | – | – | – | – | not able to provide growth for most, if not all, commensal and pathogenic bacterial species | growth and fermentation vs positive control, Ef-1 ([1]; E. faecalis ATCC BAA-2128, Culture Collection): +; Sa-2 MRS Δ [7, 10]: 0.75 Log CFU/mL and 0.69 Log CFU/mL; Sa-2 TSA Δ ([7]; change vs start, background growth in CHL media subtracted, TSA): 0.58 Log CFU/mL and 0.52 Log CFU/mL; Sa-2 MRS end ([7]; competition Sa-2 vs Lc-3, 48 hours, anaerobic, enumerated on MRS agar): 7.45 Log CFU/mL and 7.54 Log CFU/mL; Sa-2 TSA end ([7]; competition Sa-2 vs Lc-3, 48 hours, enumerated on TSA): 7.43 Log CFU/mL and 7.65 Log CFU/mL; Lc-3 MRS Δ [8, 10]: 0.77 Log CFU/mL and 0.66 Log CFU/mL; Lc-3 MRS end ([8]; competition Sa-2 vs Lc-3, 48 hours, enumerated on MRS agar): 5.90 Log CFU/mL and 6.74 Log CFU/mL; Therapeutic Effect (ratio of L. crispatus/S. anginosus) [9]: 2.95E−02 (2×) and 1.23E−01 (2×); growth of commensal bacterial species, in words ([6]; commensal species from culture collection, the bladder, or the vagina): did not show any positive growth |
